Results: EPA's ToxValDB 9.5 (doi:10.2903/j.efsa.2008.170r)

Experiments:
[1] = tested on: Daphnia magna; details: chronic/long-term
[2] = tested on: Oncorhynchus mykiss
[3] = tested on: Canidae; details: chronic; duration: 1 years; oral; Dog Other; body weight
[4] = tested on: Rattus norvegicus; details: acute; mortality
[5] = tested on: Tagia sp.
[6] = tested on: Apis mellifera; details: acute; dermal; mortality
[7] = tested on: Oryctolagus sp.
[8] = tested on: Bird; details: chronic/long-term; mortality
[9] = tested on: Typhlodromus pyri; details: not reported; mortality

SMILES: CC(=O)O.CC1CN(C2CCCCCCCCCCC2)CC(C)O1 (configuration not stated) [Dodemorph acetate]
- NOEC [1]: 0.08 mg/L
- LC50 ([2]; acute, duration: 96 hours, mortality): 1.23 mg/L
- NOEC ([2]; chronic/long-term, duration: 28 days, growth): 0.1 mg/L
- NOAEL [3]: 10 mg/kg-day
- LD50 [4]: 4100 mg/kg
- LC50 ([5]; acute, duration: 14 days, mortality): > 824 mg/kg
- NOEC ([5]; chronic/long-term, duration: 56 days, other): 103 mg/kg
- LD50 [6]: > 76.6 µg/piece
- LD50 ([7]; acute, mortality): 21 mg/kg-day
- NOAEL ([7]; developmental, development): 40 mg/kg-day
- LD50 [8]: 9.4 mg/kg-day
- LEL [9]: 660 g/ha
